How the values were obtained:
hair growth = assay: Observation of hair growth with ethyl nicotinate in a shampoo; assay type: in vivo; conditions: included in a shampoo, in the absence of any other hair growth promoter
head, forehead and neck = assay: Half-head wash with ethyl nicotinate shampoo against placebo shampoo (erythema meter, Cyclops pyrometer, sensations); assay type: in vivo, human
Experimental: EXPERIMENTS WITH ETHYL NICOTINATE ESTER IN SHAMPOO Five subjects washed one side of the head, forehead and neck with a shampoo the same as in Example 5 but containing a varying level of ethyl nicotinate for a period ranging from one to five minutes, whilst the other side was washed with a placebo shampoo of corresponding composition. The changes occurring on the various symmetrical sites around the head were assessed with the erythema meter and a "Cyclops" pyrometer in sequence. The readings were continued for between 45 minutes and one hour.

In the case of `CCOC(=O)c1cccnc1` [EtNic, ethyl nicotinate], the hair growth (hair growth) is reported as “promote hair growth”, the temperature (head, forehead and neck; active sites against placebo sites, Cyclops pyrometer, wash of one to five minutes) is reported as “either rose or did not fall so low as the placebo sites” and the redness (head, forehead and neck; active sites against placebo sites, erythema meter, wash of one to five minutes) is reported as “increased the redness”. For the same compound, the “longer term sensations of a pleasant nature, duration after treatment” value (head, forehead and neck; crown of the head) was “up to two”.
